# Measurements from patent publication US8629110B2, “Kv1.3 channel blocking substances for the treatment of diseases associated with intimal hyperplasia” (priority 2008, dated 2014).
# Read-outs that look alike come from different tables or passages of the source.
# What was measured:
# [1] = target: T1, Kv1.3 channel (Homo sapiens, UniProt P22001); conditions: read-out: Affinity (Kd), cited from earlier work
# [2] = target: T1, Kv1.3 channel; experiment: Whole-cell patch-clamp in HEK cell transfected with the Kv1.3 channel; type: cell-based; conditions: 10 nM; potentials from +10 up to +80 mV; HEK cell transfected with Kv1.3
# Excerpt: FIG. 3. Example of the assay for determining if a substance is a Kv1.3 channel blocker. […] The amplitude of the maximum current evoked by each voltage pulse is depicted in panel B depending on the value of the membrane potential, with which the current (I) voltage (V) curve is constructed for the three situations.
# To evaluate if a substance is capable of dose-dependently reducing the flow of current through Kv1.3 (i.e., if it is a Kv1.3 blocker). The currents through the Kv1.3 channels expressed in the heterologous system were studied by means of the patch-clamp technique in the whole-cell configuration. The currents were recorded at room temperature (21-25° C.). The cells, placed in a recording chamber located in an inverted microscope, were perfused with a physiological saline solution (in mM: 141 NaCl, 4.7 KCl, 1.2 MgCl2, 1.8 CaCl2, 10 glucose and 10 HEPES (pH 7.4 with NaOH). The recording pipettes were made from borosilicate glass (2.0 mm OD, WPI) with a pipette puller (Narishige PP-83) so that they have resistances between 2 and 5 MΩ upon filling them with an internal solution containing (in mM) 125 KCl, 4 MgCl2, 10 HEPES, 10 EGTA, 5 MgATP; (pH 7.2 with KOH). The whole-cell currents were recorded with an Axopatch 200 amplifier or the like, filtering at 2 kHz and sampling at 10 kHz. […]
# [3] = Swine stent model: pharmacokinetics (blood and arterial tissue levels); type: in vivo, pigs
# Procedure: (§1) The total weight of the polymer with the drug is about 500 μg and the drug:polymer ratio is 30%. The stents are packed individually, coded with a bar code (to do a double blind experiment) and sterilized with ethylene oxide.
# (§2) 36 stents (12 with the polymer alone, 12 with PAP and 12 with ShK) are implanted in 12 young pigs (25-35 kg) in the anterior descending or circumflex branches of the left coronary artery or in the right coronary artery (at a proportion of 3 stents per animal). The animals recover from the operation and are sent back to the animal house where they receive a normal diet supplemented with aspirin (325 mg/d). Blood samples of the animals are obtained at 6, 12, 24, 48 and 96 hours to determine the plasma levels of PAP and ShK. At 7 (n=4) or 28 days (n=8) the animals are euthanized after performing a coronary arteriography for the quantitative analysis. In one animal of each group (7 and 28 days), after euthanasia the coronary arteries are dissected, the stent is removed and the samples are frozen in liquid nitrogen in order to determine different markers by means of Western blot of the tissues and to determine the levels of PAP and ShK in the arterial wall. In the rest of the animals, immediately after euthanasia the hearts are collected and the coronary arteries are fixed by perfusion of formalin at 10% for 30 minutes.
# [4] = system: Swine animal model of restenosis (coronary artery intima); experiment: Swine animal model for the treatment of restenosis: morphometric analysis of stented coronary arteries; type: in vivo, pigs
# Procedure: as §1, §2
# A morphometric analysis is performed measuring the degree of endothelialization of the stent area, the content of VSMCs in the intima and its thickness in relation to the thickness of the vessel and the lumen area (see FIG. 9).
# [5] = system: VSMCs of the human uterine artery; experiment: Proliferation of VSMCs in culture (BrdU incorporation); type: cell-based; conditions: 10 nM; 24 hours; medium with 5% serum
# Procedure: FIG. 8. Effect of the Kv1.3 channel blockers on the proliferation of the VSMCs of the human uterine artery. […] Again, these experiments were conducted in cells in control medium and cells in which the margatoxin or PAP was added to the medium.
# For the proliferation studies, the fraction of cells incorporating 5-bromo-2′-deoxyuridine (BrdU) was determined. BrdU is a thymidine analog which can be incorporated in its place for the synthesis phase of the cell cycle. The cells incorporating BrdU can be detected by means of observation under a fluorescence microscope upon using a monoclonal antibody against this molecule and a secondary antibody conjugated with a fluorochrome. The assay was performed with a commercial kit (5-Bromo-2′-deoxy-uridine labeling and Detection Kit I; Roche Applied Science, Germany). The human uterine artery smooth muscle cells were grown for 48 hours in glass coverslips 12 mm in diameter in DMEM medium supplemented with serum and antibiotics as has been previously described, until reaching a confluence close to 50%. […] To quantify the results, the number of cells positive for BrdU with respect to the total number of cells in the field (which is determined by labeling the nuclei with the DAPI fluorescent dye) is counted in 10-20 fields in each experiment.
# [6] = target: T2, Kv1.3 channels (Mus musculus, UniProt P16390); experiment: Whole-cell patch-clamp of Kv currents in contractile and cultured VSMCs of mouse femoral arteries; type: cell-based; conditions: 10 nM, pulse to +40 mV
# T2 construct: endogenous in cells; host or cells: freshly dissociated and cultured VSMCs from femoral arteries of BPN mice
# T2 sequence (P16390 whole entry): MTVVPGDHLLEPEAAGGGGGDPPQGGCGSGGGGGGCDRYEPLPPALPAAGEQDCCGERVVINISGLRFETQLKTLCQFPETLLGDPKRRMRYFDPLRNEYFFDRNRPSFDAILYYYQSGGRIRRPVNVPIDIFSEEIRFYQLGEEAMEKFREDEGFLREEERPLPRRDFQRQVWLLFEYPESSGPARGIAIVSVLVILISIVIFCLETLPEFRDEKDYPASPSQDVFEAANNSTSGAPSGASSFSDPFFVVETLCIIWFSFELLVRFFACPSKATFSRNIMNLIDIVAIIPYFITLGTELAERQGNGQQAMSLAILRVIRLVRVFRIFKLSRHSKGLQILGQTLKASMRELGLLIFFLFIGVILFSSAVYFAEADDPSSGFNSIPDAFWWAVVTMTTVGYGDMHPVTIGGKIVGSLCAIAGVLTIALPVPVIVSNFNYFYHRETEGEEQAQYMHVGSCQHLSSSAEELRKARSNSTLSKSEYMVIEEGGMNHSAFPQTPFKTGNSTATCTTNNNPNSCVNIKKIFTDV
# Procedure: To isolate the VSMCs (model of cells in contractile phenotype), the animals were sacrificed by decapitation after anesthesia with isoflurane (5% at 2.5 I O2 min^−1).
# To obtain the VSMCs in culture (in vitro model of proliferative phenotype), small fragments (0.5 mm) of femoral arteries free of endothelium and connective tissue were placed in 35 mm Petri culture dishes covered with 2% gelatin (Type B, Sigma) in a DMEM culture medium with 20% of fetal bovine serum, 100 U/ml penicillin, 100 U/ml streptomycin and 2 mM L-glutamine at 37° C. in a 5% CO2 atmosphere. The migration and proliferation of the VSMCs of these explants was clear at 6-10 days, but the explants were maintained until the single layer of VSMC was confluent. At this time, by means of mechanical scraping with a rubber spatula the cells were shed and seeded in a new culture dish at ⅓ of their original density. The VSMCs were thus subjected to several passes (3-4) without showing apparent morphological changes.
# The drugs were prepared at the final concentrations indicated in the saline solution of the bath following the supplier's instructions and were applied to the cells for a period of 1-2 minutes. The currents were recorded before applying the drug (control) and in the presence of the drug, and the percentage of reduction in the amplitude of the currents induced by different blockers was calculated.
# T1 sequence (P22001 whole entry): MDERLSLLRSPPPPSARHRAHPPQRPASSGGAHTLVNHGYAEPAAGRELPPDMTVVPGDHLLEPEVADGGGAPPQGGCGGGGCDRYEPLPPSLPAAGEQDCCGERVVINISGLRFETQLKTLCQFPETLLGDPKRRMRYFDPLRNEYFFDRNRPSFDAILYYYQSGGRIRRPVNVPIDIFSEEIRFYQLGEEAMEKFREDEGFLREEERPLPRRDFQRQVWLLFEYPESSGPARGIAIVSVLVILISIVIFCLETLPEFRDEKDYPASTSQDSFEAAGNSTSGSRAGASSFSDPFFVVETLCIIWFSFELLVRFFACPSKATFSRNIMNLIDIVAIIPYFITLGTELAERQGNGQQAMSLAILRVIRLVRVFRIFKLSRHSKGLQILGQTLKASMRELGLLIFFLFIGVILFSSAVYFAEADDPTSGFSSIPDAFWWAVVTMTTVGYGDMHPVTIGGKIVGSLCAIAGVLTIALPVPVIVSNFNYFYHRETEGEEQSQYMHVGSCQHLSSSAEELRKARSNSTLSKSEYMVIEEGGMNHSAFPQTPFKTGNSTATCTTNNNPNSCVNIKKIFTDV
Compound,Kd ([1]; Kv1.3 channel),further results
CCCCC/N=c1\ccn(Cc2ccccc2)c2ccccc12 [CP339818],,Kd [1]: 0.15 µM
COc1cc(CNC(=O)CCCC/C=C/C(C)C)ccc1O [Capsaicin],26 µM,
CCC[C@@H](O)/C=C/C=C/C=C/C#CC#CCCCO [Cicutotoxin],18 µM,
[Co+2] [Co^2+],200 µM,
C=C1C[C@@]2(O)[C@@H]3CC[C@@]4(C)[C@@H]5C=CC(=O)OC[C@]5(C(C)OC(C)=O)[C@@H](OC(C)=O)[C@@H](OC(C)=O)[C@@H]4[C@@]3(C)[C@H](OC(C)=O)[C@H](OC(C)=O)[C@@]2(C)C2(C(=O)OC)O[C@H]12 (stereo partly drawn) [Correolide],,Kd [1]: 0.09 µM
COc1ccc([C@@H]2Sc3ccccc3N(CCN(C)C)C(=O)[C@@H]2OC(C)=O)cc1 [Diltiazem],27 µM,
O=C(NCC1CCCCN1)c1cc(OCC(F)(F)F)ccc1OCC(F)(F)F (stereo not drawn) [Flecainide],60 µM,
[Hg+2] [Hg^2+],10 µM,
[La+3] [La^3+],20 µM,
O=c1cc(-c2ccc(O)c(O)c2)oc2cc(O)cc(O)c12 [Luteolin],50 µM,
COC(=O)C1=C(C)NC(C)=C(C(=O)OC)C1c1ccccc1[N+](=O)[O-] [Nifedipine],5 µM,
CCOC(=O)C1=C(C)NC(C)=C(C(=O)OC)C1c1cccc([N+](=O)[O-])c1 (stereo not drawn) [Nitrendipine],5 µM,
O=c1ccc2c(OCCCCOc3ccccc3)c3ccoc3cc2o1 [PAP-1],,"reduction of the current [2]: 80-85%; blood levels, maximal ([3]; 6 hours after implanting the stent, stent with 200 μg drug): about 3 ng/ml; content in the arterial tissue ([3]; at 7 days): 97 ng/artery; content in the arterial tissue ([3]; at 28 days): 30 ng/artery; number of VSMCs in the intima ([4]; drug-coated stent versus control stent): significantly decreased; intimal area ([4]; drug-coated stent, 5.07 mm^2 in control): 2.23 mm^2; degree of stenosis ([4]; drug-coated stent, 45% in control): 27%; fraction of cells labeled with BrdU (proliferation) [5]: a lower number of labeled nuclei is observed"
c1ccc(C2(N3CCCCC3)CCCCC2)cc1 [Phencyclidine],5 µM,
CC(=O)[C@H]1CC[C@H]2[C@@H]3CCC4=CC(=O)CC[C@]4(C)[C@H]3CC[C@]12C [Progesterone],30 µM,
C=C[C@H]1C[N@@]2CC[C@H]1C[C@H]2[C@H](O)c1ccnc2ccc(OC)cc12 [Quinine],14 µM,
C=C(C)[C@]12C[C@@H](C)[C@@]34O[C@](Cc5ccccc5)(O[C@@H]1[C@@H]3C=C(COC(=O)Cc1ccc(O)c(OC)c1)C[C@]1(O)C(=O)C(C)=C[C@@H]41)O2 [Resiniferatoxin],3 µM,
CC[C@H](C)[C@@H]1NC(=O)[C@@H](NC(=O)[C@H](CO)NC(=O)[C@@H](N)CCCNC(=N)N)CSSC[C@@H](C(=O)O)NC(=O)[C@H]([C@@H](C)O)NC(=O)CNC(=O)[C@@H]2CSSC[C@@H]3NC(=O)[C@H](CCC(N)=O)NC(=O)[C@H](Cc4ccccc4)NC(=O)[C@H](C)NC(=O)[C@H]([C@@H](C)O)NC(=O)[C@H](CSSC[C@H](NC(=O)[C@H](Cc4ccccc4)NC(=O)[C@H](CO)NC(=O)[C@H](CC(C)C)NC(=O)[C@H](CCCNC(=N)N)NC(=O)[C@H](Cc4ccc(O)cc4)NC(=O)[C@H](CCCCN)NC(=O)[C@H](CCSC)NC(=O)[C@H](CO)NC(=O)[C@H](Cc4cnc[nH]4)NC(=O)[C@H](CCCCN)NC3=O)C(=O)N[C@@H](CCCNC(=N)N)C(=O)N[C@@H](CCCCN)C(=O)N[C@@H]([C@@H](C)O)C(=O)N2)NC(=O)[C@H](CCCNC(=N)N)NC(=O)[C@H](CO)NC(=O)[C@H](CCCCN)NC(=O)[C@@H]2CCCN2C(=O)[C@H]([C@@H](C)CC)NC(=O)[C@H]([C@@H](C)O)NC(=O)[C@H](CC(=O)O)NC1=O [ShK],,"level at 96 h ([3]; pig, in vivo, 200 ug per stent, at 4 days, below the limit of detection): < 0.2 ng/mL"
"CC[N+](CC)(CC)CC [TEA, tetraethylammonium chloride]",10000 µM,
CN1CCN(CCCN2c3ccccc3Sc3ccc(C(F)(F)F)cc32)CC1 [Trifluoperazine],20 µM,
COc1ccc(CCCN2CCC(COC(c3ccccc3)c3ccccc3)CC2)cc1 [UK78282],0.2 µM,
[Zn+2] [Zn^2+],200 µM,

Compound,Kd ([1]; Kv1.3 channel),further results
Agiotoxin-2,0.0002 µM,
Bunodosoma granulifera toxin,0.039 µM,
Buthus martensii Karsch toxin,0.00079 µM,
Charybdotoxin,0.003 µM,
Dendrotoxin,0.25 µM,
Heterometrus spinifer toxin 1,1.2e-05 µM,
Hongotoxin,8.6e-05 µM,
Kaliotoxin,0.00065 µM,
Margatoxin,0.00011 µM,"current blocked, of the Kv current ([6]; VSMCs in culture): 58.15±4.54; current blocked, of the Kv current ([6]; contractile VSMCs): 10.6±2.03; fraction of cells labeled with BrdU (proliferation) [5]: a lower number of labeled nuclei is observed"
"Maurotoxin (VSCTGSKDCYAPCRKQTGCPNAKCINKSCKCYGC; UniProt P80719 1-34, looked up)",0.15 µM,
"Noxiustoxin (TIINVKCTSPKQCSKPCKELYGSSAGAKCMNGKCKCYNN; UniProt P08815 1-39, looked up)",0.001 µM,
Odonthobthus doriae toxin 2 [Odonthobthus doriae toxin 2 (OdK2)],0.007 µM,
Pandinus imperator toxin 1,0.011 µM,
Pandinus imperator toxin 2,5e-05 µM,
Pandinus imperator toxin 3,0.0005 µM,
Parabuthus toxin 1,0.8 µM,
Parabuthus toxin 3,0.492 µM,
Stichodactyla helianthus toxin [Stichodactyla helianthus toxin (ShK)],1.1e-05 µM,
Stichodactyla helianthus toxin—fluorescein-6-carboxylic acid [ShK-F6CA],4.8e-05 µM,
Titystoxin-Kα,0.004 µM,
trans-N-propyl-carbamoyloxy-PAC,0.05 µM,
κ-Hefutoxin,40 µM,
